Results on four compounds are retold here after PMC8658095, “PHA-680626 Is an Effective Inhibitor of the Interaction between Aurora-A and N-Myc” (International Journal of Molecular Sciences, 2021).

SMILES strings stand for the structures. Where two headings read alike, the source gives them in different places.

On the set-up of data set [1]: method as in PMID 25175806. The conditions noted are these: cited from earlier work.
The target of a further data set is T1, AURKA/N-Myc complex (Homo sapiens, UniProt O14965).
T1 construct: endogenous in cells; host or cells: U2OS FRT/TO Flp-In; AURKA endogenous, N-Myc-tFT from a stably integrated, doxycycline-inducible construct
T1 sequence (O14965 1-403): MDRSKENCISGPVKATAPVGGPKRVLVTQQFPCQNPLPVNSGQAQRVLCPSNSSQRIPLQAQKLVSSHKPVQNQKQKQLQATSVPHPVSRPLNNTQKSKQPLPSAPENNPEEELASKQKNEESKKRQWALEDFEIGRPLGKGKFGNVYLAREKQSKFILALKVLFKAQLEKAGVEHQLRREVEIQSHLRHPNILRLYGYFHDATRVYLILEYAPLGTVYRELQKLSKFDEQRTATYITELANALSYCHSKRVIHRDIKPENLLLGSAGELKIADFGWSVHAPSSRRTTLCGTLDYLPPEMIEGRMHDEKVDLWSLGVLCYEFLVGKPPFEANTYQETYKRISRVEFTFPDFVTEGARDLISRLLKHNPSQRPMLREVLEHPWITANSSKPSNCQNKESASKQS
In words: In situ Proximity Ligation Assay of AURKA/N-Myc in U2OS MYCN cells. It counts as cell-based.

The test system of data set [2] is AURKA. The settings on record: cited from earlier work.
The subject of data set [3] is IMR-32 cells. Nature of the data set: Cell death (PARP-1 cleavage) and morphology of IMR-32 cultures. It counts as cell-based. The settings on record: IMR-32, 1 μM, 48 h.
The subject of data set [4] is IMR-32 cells. Nature of the data set: FACS analysis (PI) of cell cycle and sub-G1 DNA content. The data set is classed as cell-based. The settings on record: IMR-32, 1 μM, 48 h; DMSO about 8%.
Data set [5] addresses T2, AURKA (Homo sapiens, UniProt O14965).
T2 construct: the catalytic domain of human AURKA (amino acids 122–430); His-tag followed by TEV protease cleavage site (N); made in house; host or cells: bacterial culture (LB, kanamycin, IPTG induction; pETM11)
T2 sequence (O14965 122-403 limits assumed): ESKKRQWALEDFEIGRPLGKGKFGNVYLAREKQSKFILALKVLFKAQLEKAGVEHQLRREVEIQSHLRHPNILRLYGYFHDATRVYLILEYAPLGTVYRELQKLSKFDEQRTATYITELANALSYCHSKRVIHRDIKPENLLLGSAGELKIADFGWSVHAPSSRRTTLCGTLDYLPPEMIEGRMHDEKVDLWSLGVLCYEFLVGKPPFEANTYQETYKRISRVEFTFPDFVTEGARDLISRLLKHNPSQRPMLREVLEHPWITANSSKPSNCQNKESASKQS
Nature of the data set: SPR binding kinetics on immobilized AURKA. The conditions noted are these: 25 °C, flow rate 150 μL/min.

For the compound `O=C(Nc1ccc(Nc2nccc(Nc3cc(C4CCCC4)[nH]n3)n2)cc1)Nc1cccc(C(F)(F)F)c1` [CD532], in data set [1], the half-life result was “short half-life” and the oral bioavailability entry was “poor oral bioavailability”.
`COc1cc2c(Nc3ccc(NC(=O)c4ccccc4)cc3)ncnc2cc1OCCCN1CCOCC1` [ZM447439]: the “AURKA/N-Myc interaction (isPLA spots per nucleus)” value on AURKA/N-Myc complex (U2OS MYCN, 1 μM, MG-132 4 h before fixation) was “no difference between control and treated cells”. In addition, in the data set with AURKA [2], the IC50 was […]. Moreover, the cell morphology entry with IMR-32 cells [3] (bright-field microscopy) was “only induced spherical mitotic shapes”.
In the case of `O=C(O)c1ccc(Nc2ncc3c(n2)-c2ccc(Cl)cc2C(c2c(F)cccc2F)=NC3)cc1` [MLN8054], the “AURKA/N-Myc interaction (isPLA spots per nucleus)” value on AURKA/N-Myc complex is on record as “significantly reduced”. The “cells with sub-G1 DNA content” value in the data set on IMR-32 cells [4] is about 30%. Further, in the data set with IMR-32 cells [3] (Western blot), the “cleaved PARP-1 (cell death induction)” value is “a fraction of cleaved PARP-1”.
For the compound `O=C(c1cccc(Cl)c1F)N1CCN(Cc2cccc(Nc3nccs3)n2)CC1` [MK8754, MK8745], the half-maximal inhibitory concentration (IC50) in the data set on AURKA [2] is 0.6 nM. On AURKA [5], this compound gave a Koff of 12.0 ± 0.09 s^−1 × 10^−3 and a Kon of 7.8 ± 0.1 M^−1s^−1 × 10^6. The compound further came in with a Kd at AURKA [5] (koff/kon) of 1.55 ± 0.03 nM.
